{"source": "ChEMBL document CHEMBL4011590", "about": "“Structure-activity relationship studies on 3,5-dinitrophenyl tetrazoles as antitubercular agents” (Eur J Med Chem, 2017)", "key": {"[1]": {"test_system": "Klebsiella pneumoniae", "experiment": "Antibacterial activity against extended spectrum beta-lactamase producing Klebsiella pneumoniae HK14368/08 after 24 hrs by broth microdilution method", "assay_type": "functional", "settings": "HK14368/08, 24 h"}, "[2]": {"test_system": "Mycobacterium kansasii", "experiment": "Antimycobacterial activity against Mycobacterium kansasii isolate 6509/96 after 21 days by micromethod", "assay_type": "functional", "settings": "isolate 6509/96, 504 h"}, "[3]": {"test_system": "Klebsiella pneumoniae", "experiment": "Antibacterial activity against extended spectrum beta-lactamase producing Klebsiella pneumoniae HK14368/08 after 48 hrs by broth microdilution method", "assay_type": "functional", "settings": "HK14368/08, 48 h"}, "[4]": {"test_system": "Mycobacterium avium", "experiment": "Antimycobacterial activity against Mycobacterium avium CNCTC My 330/80 after 14 days by micromethod", "assay_type": "functional", "settings": "CNCTC My 330/80, 336 h"}, "[5]": {"test_system": "Staphylococcus aureus", "experiment": "Antibacterial activity against Staphylococcus aureus ATCC 6538 after 48 hrs by broth microdilution method", "assay_type": "functional", "settings": "ATCC 6538, 48 h"}, "[6]": {"test_system": "Staphylococcus epidermidis", "experiment": "Antibacterial activity against Staphylococcus epidermidis HK6966/08 after 24 hrs by broth microdilution method", "assay_type": "functional", "settings": "HK6966/08, 24 h"}, "[7]": {"test_system": "Nakaseomyces glabratus", "experiment": "Antifungal activity against Candida glabrata 20/I after 24 hrs by broth microdilution method", "assay_type": "functional"}, "[8]": {"test_system": "Trichophyton mentagrophytes", "experiment": "Antifungal activity against Trichophyton mentagrophytes 445 after 120 hrs by broth microdilution method", "assay_type": "functional", "settings": "Trichophyton mentagrophytes, 445, 120 h"}, "[9]": {"test_system": "Staphylococcus aureus", "experiment": "Antibacterial activity against Staphylococcus aureus ATCC 6538 after 24 hrs by broth microdilution method", "assay_type": "functional", "settings": "ATCC 6538, 24 h"}, "[10]": {"test_system": "Candida tropicalis", "experiment": "Antifungal activity against Candida tropicalis 156 after 24 hrs by broth microdilution method", "assay_type": "functional", "settings": "Candida tropicalis, 156, 24 h"}, "[11]": {"test_system": "Lichtheimia corymbifera", "experiment": "Antifungal activity against Absidia corymbifera 272 after 24 hrs by broth microdilution method", "assay_type": "functional", "settings": "Lichtheimia corymbifera, 272, 24 h"}, "[12]": {"test_system": "Mycobacterium tuberculosis", "experiment": "Antimycobacterial activity against Mycobacterium tuberculosis H37Rv CNCTC My 331/88 after 21 days by micromethod", "assay_type": "functional", "settings": "H37Rv CNCTC My 331/88, 504 h"}, "[13]": {"test_system": "Escherichia coli", "experiment": "Antibacterial activity against Escherichia coli ATCC 8739 after 48 hrs by broth microdilution method", "assay_type": "functional", "settings": "ATCC 8739, 48 h"}, "[14]": {"test_system": "Mycobacterium kansasii", "experiment": "Antimycobacterial activity against Mycobacterium kansasii CNCTC My 235/80 after 7 days by micromethod", "assay_type": "functional", "settings": "CNCTC My 235/80, 168 h"}, "[15]": {"test_system": "Pichia kudriavzevii", "experiment": "Antifungal activity against Candida krusei E28 after 48 hrs by broth microdilution method", "assay_type": "functional", "settings": "E28, 48 h"}, "[16]": {"test_system": "Staphylococcus aureus", "experiment": "Antibacterial activity against methicillin-resistant Staphylococcus aureus HK5996/08 after 24 hrs by broth microdilution method", "assay_type": "functional", "settings": "HK5996/08, 24 h"}, "[17]": {"test_system": "Aspergillus fumigatus", "experiment": "Antifungal activity against Aspergillus fumigatus 231 after 48 hrs by broth microdilution method", "assay_type": "functional", "settings": "Aspergillus fumigatus, 231, 48 h"}, "[18]": {"test_system": "Enterococcus sp.", "experiment": "Antibacterial activity against Enterococcus sp. HK14365/08 after 24 hrs by broth microdilution method", "assay_type": "functional", "settings": "HK14365/08, 24 h"}, "[19]": {"test_system": "Candida albicans", "experiment": "Antifungal activity against Candida albicans ATCC 44859 after 48 hrs by broth microdilution method", "assay_type": "functional", "settings": "ATCC 44859, 48 h"}, "[20]": {"test_system": "Trichophyton mentagrophytes", "experiment": "Antifungal activity against Trichophyton mentagrophytes 445 after 72 hrs by broth microdilution method", "assay_type": "functional", "settings": "Trichophyton mentagrophytes, 445, 72 h"}, "[21]": {"test_system": "Mycobacterium kansasii", "experiment": "Antimycobacterial activity against Mycobacterium kansasii CNCTC My 235/80 after 21 days by micromethod", "assay_type": "functional", "settings": "CNCTC My 235/80, 504 h"}, "[22]": {"test_system": "Staphylococcus epidermidis", "experiment": "Antibacterial activity against Staphylococcus epidermidis HK6966/08 after 48 hrs by broth microdilution method", "assay_type": "functional", "settings": "HK6966/08, 48 h"}, "[23]": {"test_system": "CHO-K1", "experiment": "Cytotoxicity against CHOK1 cells after 24 hrs by MTT assay", "assay_type": "cell-based", "settings": "Cricetulus griseus, CHO-K1, 24 h"}, "[24]": {"test_system": "Staphylococcus aureus", "experiment": "Antibacterial activity against methicillin-resistant Staphylococcus aureus HK5996/08 after 48 hrs by broth microdilution method", "assay_type": "functional", "settings": "HK5996/08, 48 h"}, "[25]": {"test_system": "Candida tropicalis", "experiment": "Antifungal activity against Candida tropicalis 156 after 48 hrs by broth microdilution method", "assay_type": "functional", "settings": "Candida tropicalis, 156, 48 h"}, "[26]": {"test_system": "Klebsiella pneumoniae", "experiment": "Antibacterial activity against Klebsiella pneumoniae HK11750/08 after 48 hrs by broth microdilution method", "assay_type": "functional", "settings": "HK11750/08, 48 h"}, "[27]": {"test_system": "Klebsiella pneumoniae", "experiment": "Antibacterial activity against Klebsiella pneumoniae HK11750/08 after 24 hrs by broth microdilution method", "assay_type": "functional", "settings": "HK11750/08, 24 h"}, "[28]": {"test_system": "Nakaseomyces glabratus", "experiment": "Antifungal activity against Candida glabrata 20/I after 48 hrs by broth microdilution method", "assay_type": "functional"}, "[29]": {"test_system": "Pseudomonas aeruginosa", "experiment": "Antibacterial activity against Pseudomonas aeruginosa ATCC 9027 after 48 hrs by broth microdilution method", "assay_type": "functional", "settings": "ATCC 9027, 48 h"}, "[30]": {"test_system": "Trichosporon asahii", "experiment": "Antifungal activity against Trichosporon asahii 1188 after 24 hrs by broth microdilution method", "assay_type": "functional", "settings": "Trichosporon asahii, 1188, 24 h"}, "[31]": {"test_system": "Mycobacterium kansasii", "experiment": "Antimycobacterial activity against Mycobacterium kansasii isolate 6509/96 after 7 days by micromethod", "assay_type": "functional", "settings": "isolate 6509/96, 168 h"}, "[32]": {"test_system": "Mycobacterium tuberculosis", "experiment": "Antimycobacterial activity against Mycobacterium tuberculosis H37Rv CNCTC My 331/88 after 14 days by micromethod", "assay_type": "functional", "settings": "H37Rv CNCTC My 331/88, 336 h"}, "[33]": {"test_system": "Pichia kudriavzevii", "experiment": "Antifungal activity against Candida krusei E28 after 24 hrs by broth microdilution method", "assay_type": "functional", "settings": "E28, 24 h"}, "[34]": {"test_system": "Aspergillus fumigatus", "experiment": "Antifungal activity against Aspergillus fumigatus 231 after 24 hrs by broth microdilution method", "assay_type": "functional", "settings": "Aspergillus fumigatus, 231, 24 h"}, "[35]": {"test_system": "Escherichia coli", "experiment": "Antibacterial activity against Escherichia coli ATCC 8739 after 24 hrs by broth microdilution method", "assay_type": "functional", "settings": "ATCC 8739, 24 h"}, "[36]": {"test_system": "Trichosporon asahii", "experiment": "Antifungal activity against Trichosporon asahii 1188 after 48 hrs by broth microdilution method", "assay_type": "functional", "settings": "Trichosporon asahii, 1188, 48 h"}, "[37]": {"test_system": "Mycobacterium avium", "experiment": "Antimycobacterial activity against Mycobacterium avium CNCTC My 330/80 after 21 days by micromethod", "assay_type": "functional", "settings": "CNCTC My 330/80, 504 h"}, "[38]": {"test_system": "Candida albicans", "experiment": "Antifungal activity against Candida albicans ATCC 44859 after 24 hrs by broth microdilution method", "assay_type": "functional", "settings": "ATCC 44859, 24 h"}, "[39]": {"test_system": "Mycobacterium kansasii", "experiment": "Antimycobacterial activity against Mycobacterium kansasii isolate 6509/96 after 14 days by micromethod", "assay_type": "functional", "settings": "isolate 6509/96, 336 h"}, "[40]": {"test_system": "Lichtheimia corymbifera", "experiment": "Antifungal activity against Absidia corymbifera 272 after 48 hrs by broth microdilution method", "assay_type": "functional", "settings": "Lichtheimia corymbifera, 272, 48 h"}, "[41]": {"test_system": "Mycobacterium kansasii", "experiment": "Antimycobacterial activity against Mycobacterium kansasii CNCTC My 235/80 after 14 days by micromethod", "assay_type": "functional", "settings": "CNCTC My 235/80, 336 h"}, "[42]": {"test_system": "Pseudomonas aeruginosa", "experiment": "Antibacterial activity against Pseudomonas aeruginosa ATCC 9027 after 24 hrs by broth microdilution method", "assay_type": "functional", "settings": "ATCC 9027, 24 h"}, "[43]": {"test_system": "Enterococcus sp.", "experiment": "Antibacterial activity against Enterococcus sp. HK14365/08 after 48 hrs by broth microdilution method", "assay_type": "functional", "settings": "HK14365/08, 48 h"}}}
{"smiles": "O=[N+]([O-])c1cc(-c2nnn(Cc3ccc(Br)cc3)n2)cc([N+](=O)[O-])c1", "values": [{"measurement": "MIC", "setting": "[1]", "value": "> 125", "unit": "µM"}, {"measurement": "MIC99", "setting": "[2]", "value": 1, "unit": "µM"}, {"measurement": "MIC", "setting": "[3]", "value": "> 125", "unit": "µM"}, {"measurement": "MIC99", "setting": "[4]", "value": 4, "unit": "µM"}, {"measurement": "MIC", "setting": "[5]", "value": 62.5, "unit": "µM"}, {"measurement": "MIC", "setting": "[6]", "value": 31.2, "unit": "µM"}, {"measurement": "MIC", "setting": "[7]", "value": "> 500", "unit": "µM"}, {"measurement": "MIC", "setting": "[8]", "value": "> 500", "unit": "µM"}, {"measurement": "MIC", "setting": "[9]", "value": 62.5, "unit": "µM"}, {"measurement": "MIC", "setting": "[10]", "value": "> 500", "unit": "µM"}, {"measurement": "MIC", "setting": "[11]", "value": "> 500", "unit": "µM"}, {"measurement": "MIC99", "setting": "[12]", "value": 0.25, "unit": "µM"}, {"measurement": "MIC", "setting": "[13]", "value": "> 125", "unit": "µM"}, {"measurement": "MIC99", "setting": "[14]", "value": 0.25, "unit": "µM"}, {"measurement": "MIC", "setting": "[15]", "value": "> 500", "unit": "µM"}, {"measurement": "MIC", "setting": "[16]", "value": "> 125", "unit": "µM"}, {"measurement": "MIC", "setting": "[17]", "value": "> 500", "unit": "µM"}, {"measurement": "MIC", "setting": "[18]", "value": "> 125", "unit": "µM"}, {"measurement": "MIC", "setting": "[19]", "value": "> 500", "unit": "µM"}, {"measurement": "MIC", "setting": "[20]", "value": "> 500", "unit": "µM"}, {"measurement": "MIC99", "setting": "[21]", "value": 1, "unit": "µM"}, {"measurement": "MIC", "setting": "[22]", "value": 31.2, "unit": "µM"}, {"measurement": "IC50", "setting": "[23]", "value": 55, "unit": "µM"}, {"measurement": "MIC", "setting": "[24]", "value": "> 125", "unit": "µM"}, {"measurement": "MIC", "setting": "[25]", "value": "> 500", "unit": "µM"}, {"measurement": "MIC", "setting": "[26]", "value": "> 125", "unit": "µM"}, {"measurement": "MIC", "setting": "[27]", "value": "> 125", "unit": "µM"}, {"measurement": "MIC", "setting": "[28]", "value": "> 500", "unit": "µM"}, {"measurement": "MIC", "setting": "[29]", "value": "> 125", "unit": "µM"}, {"measurement": "MIC", "setting": "[30]", "value": "> 500", "unit": "µM"}, {"measurement": "MIC99", "setting": "[31]", "value": 0.25, "unit": "µM"}, {"measurement": "MIC99", "setting": "[32]", "value": 0.25, "unit": "µM"}, {"measurement": "MIC", "setting": "[33]", "value": "> 500", "unit": "µM"}, {"measurement": "MIC", "setting": "[34]", "value": "> 500", "unit": "µM"}, {"measurement": "MIC", "setting": "[35]", "value": "> 125", "unit": "µM"}, {"measurement": "MIC", "setting": "[36]", "value": "> 500", "unit": "µM"}, {"measurement": "MIC99", "setting": "[37]", "value": 8, "unit": "µM"}, {"measurement": "MIC", "setting": "[38]", "value": "> 500", "unit": "µM"}, {"measurement": "MIC99", "setting": "[39]", "value": 1, "unit": "µM"}, {"measurement": "MIC", "setting": "[40]", "value": "> 500", "unit": "µM"}, {"measurement": "MIC99", "setting": "[41]", "value": 1, "unit": "µM"}, {"measurement": "MIC", "setting": "[42]", "value": "> 125", "unit": "µM"}, {"measurement": "MIC", "setting": "[43]", "value": "> 125", "unit": "µM"}]}
